Results published in ChEMBL document CHEMBL1133323, “Antitumor agents. Part 202: novel 2'-amino chalcones: design, synthesis and biological evaluation” (2000).
In brackets after ≈: the same amount, converted by molar mass.

Legend:
A549 = experiment: In vitro cytotoxicity against human lung carcinoma (A-549) cell line; format: functional; details: read-out: ED50 (the source's name)
HCT-8 = experiment: In vitro cytotoxicity against human ileocecal carcinoma (HCT-8) cell line; format: functional; details: for EC50: read-out: ED50 (the source's name)
HOS = experiment: In vitro cytotoxicity against human osteosarcoma (Hos) cell line; format: functional; details: for EC50: read-out: ED50 (the source's name)
1A9 = experiment: In vitro cytotoxicity against human ovarian cancer (IA9) cell line; format: functional; details: read-out: ED50 (the source's name)
KB [1] = experiment: In vitro cytotoxicity against human P-glycoprotein-expressing epidermoid carcinoma of the nasopharynx (KB-VIN) cell line; format: functional; details: read-out: ED50 (the source's name)
KB [2] = experiment: In vitro cytotoxicity against human epidermoid carcinoma of the nasopharynx (KB) cell line; format: functional; details: read-out: ED50 (the source's name)
MCF7 = experiment: In vitro cytotoxicity against human breast cancer (MCF-7) cell line; format: functional; details: read-out: ED50 (the source's name)
SK-MEL-2 = experiment: In vitro cytotoxicity against human melanoma (SKMEL-2) cell line; format: functional; details: for EC50: read-out: ED50 (the source's name)
U-87 MG [3] = experiment: (§1) In vitro cytotoxicity against human glioblastoma (U-87-MG) cell line; format: functional, U-87MG ATCC; details: read-out: ED50 (the source's name)
U-87 MG [4] = experiment: as §1; format: functional, U-87MG ATCC; set-up: concentration or dose not given beside the values

Q: Which results are given for `COc1cccc(/C=C/C(=O)c2ccccc2N)c1`?
A: EC50 (A549): 1.2 µg/mL (≈ 4.74 µM); EC50 (HCT-8): 4.5 µg/mL (≈ 17.8 µM); EC50 (HOS): 2 µg/mL (≈ 7.9 µM); EC50 (1A9): 0.8 µg/mL (≈ 3.16 µM); EC50 (KB [1]): 0.3 µg/mL (≈ 1.18 µM); EC50 (KB [2]): 0.65 µg/mL (≈ 2.57 µM); EC50 (MCF7): 1.3 µg/mL (≈ 5.13 µM); EC50 (SK-MEL-2): 3.5 µg/mL (≈ 13.8 µM); EC50 (U-87 MG [3]): 5.1 µg/mL (≈ 20.1 µM)

Q: Which EC50 (A549) does the source give for `Cc1ccccc1C1OC1C(=O)c1ccccc1N` (stereo unspecified) here?
A: 17 µg/mL (≈ 67.1 µM)

Q: What about the Inhibition (HCT-8) of the same compound?
A: 41%

Q: And the EC50 (HCT-8)?
A: > 20 µg/mL

Q: What about the Inhibition (HOS) of the same compound?
A: 47%

Q: And the EC50 (HOS)?
A: > 20 µg/mL

Q: What about the EC50 (1A9) of the same compound?
A: 12.5 µg/mL (≈ 49.3 µM)

Q: And the EC50 (KB [1])?
A: 11.5 µg/mL (≈ 45.4 µM)

Q: What about the EC50 (KB [2]) of the same compound?
A: 15.5 µg/mL (≈ 61.2 µM)

Q: What about the EC50 (MCF7) of the same compound?
A: 19.5 µg/mL (≈ 77 µM)

Q: What about the Inhibition (SK-MEL-2) of the same compound?
A: 45%

Q: And the EC50 (SK-MEL-2)?
A: > 20 µg/mL

Q: And the Inhibition (U-87 MG [4])?
A: 28%

Q: What about the EC50 (U-87 MG [3]) of the same compound?
A: > 20 µg/mL

Q: How did the EC50 (A549) turn out when `COc1cccc(C2OC2C(=O)c2cc3c(cc2N)OCO3)c1` (stereo unspecified) was run?
A: 2 µg/mL (≈ 6.38 µM)

Q: And the EC50 (HCT-8)?
A: 2.1 µg/mL (≈ 6.7 µM)

Q: And the EC50 (HOS)?
A: 4.5 µg/mL (≈ 14.4 µM)

Q: And the EC50 (1A9)?
A: 1.2 µg/mL (≈ 3.83 µM)

Q: What about the EC50 (KB [1]) of the same compound?
A: 1.3 µg/mL (≈ 4.15 µM)

Q: And the EC50 (KB [2])?
A: 2 µg/mL (≈ 6.38 µM)

Q: What about the EC50 (MCF7) of the same compound?
A: 1.1 µg/mL (≈ 3.51 µM)

Q: And the EC50 (SK-MEL-2)?
A: 9.8 µg/mL (≈ 31.3 µM)

Q: And the EC50 (U-87 MG [3])?
A: 5 µg/mL (≈ 16 µM)

Q: Which results are given for `Nc1cc2c(cc1C(=O)C1OC1c1ccccc1F)OCO2` (stereo unspecified)?
A: EC50 (A549): 3.5 µg/mL (≈ 11.6 µM); EC50 (HCT-8): 4.8 µg/mL (≈ 15.9 µM); EC50 (HOS): 4 µg/mL (≈ 13.3 µM); EC50 (1A9): 1.85 µg/mL (≈ 6.14 µM); EC50 (KB [1]): 2.3 µg/mL (≈ 7.63 µM); EC50 (KB [2]): 15.4 µg/mL (≈ 51.1 µM); EC50 (MCF7): 2.3 µg/mL (≈ 7.63 µM); EC50 (SK-MEL-2): 9.5 µg/mL (≈ 31.5 µM); EC50 (U-87 MG [3]): 9 µg/mL (≈ 29.9 µM)

Q: `Nc1cc2c(cc1C(=O)/C=C/c1ccccc1F)OCO2` was tested. Which EC50 (A549) did it give?
A: 2 µg/mL (≈ 7.01 µM)

Q: And the EC50 (HCT-8)?
A: 3 µg/mL (≈ 10.5 µM)

Q: What about the EC50 (HOS) of the same compound?
A: 4 µg/mL (≈ 14 µM)

Q: And the EC50 (1A9)?
A: 1.5 µg/mL (≈ 5.26 µM)

Q: What about the EC50 (KB [1]) of the same compound?
A: 0.95 µg/mL (≈ 3.33 µM)

Q: And the EC50 (KB [2])?
A: 1.5 µg/mL (≈ 5.26 µM)

Q: What about the EC50 (MCF7) of the same compound?
A: 2.6 µg/mL (≈ 9.11 µM)

Q: And the EC50 (SK-MEL-2)?
A: 6.5 µg/mL (≈ 22.8 µM)

Q: And the EC50 (U-87 MG [3])?
A: 7 µg/mL (≈ 24.5 µM)

Q: `Nc1cc2c(cc1C(=O)/C=C/c1ccc(F)cc1)OCO2` was tested. Which EC50 (A549) did it give?
A: 4.2 µg/mL (≈ 14.7 µM)

Q: And the EC50 (HCT-8)?
A: 6.5 µg/mL (≈ 22.8 µM)

Q: What about the EC50 (HOS) of the same compound?
A: 6 µg/mL (≈ 21 µM)

Q: And the EC50 (1A9)?
A: 3.5 µg/mL (≈ 12.3 µM)

Q: What about the EC50 (KB [1]) of the same compound?
A: 2.2 µg/mL (≈ 7.71 µM)

Q: And the EC50 (KB [2])?
A: 3.1 µg/mL (≈ 10.9 µM)

Q: What about the EC50 (MCF7) of the same compound?
A: 5.1 µg/mL (≈ 17.9 µM)

Q: And the EC50 (SK-MEL-2)?
A: 9 µg/mL (≈ 31.5 µM)

Q: What about the Inhibition (U-87 MG [4]) of the same compound?
A: 49%

Q: And the EC50 (U-87 MG [3])?
A: > 10 µg/mL

Q: With `COc1cccc(/C=C/C(=O)c2ccc3c(c2)OCO3)c1` as the compound, how does the EC50 (A549) read?
A: 18.5 µg/mL (≈ 65.5 µM)

Q: And the Inhibition (HCT-8)?
A: 28%

Q: And the EC50 (HCT-8)?
A: > 20 µg/mL

Q: And the Inhibition (HOS)?
A: 42%

Q: What about the EC50 (HOS) of the same compound?
A: > 20 µg/mL

Q: And the EC50 (1A9)?
A: 15 µg/mL (≈ 53.1 µM)

Q: And the EC50 (KB [1])?
A: 14 µg/mL (≈ 49.6 µM)

Q: What about the EC50 (KB [2]) of the same compound?
A: 18.7 µg/mL (≈ 66.2 µM)

Q: What about the EC50 (MCF7) of the same compound?
A: 19 µg/mL (≈ 67.3 µM)

Q: What about the Inhibition (SK-MEL-2) of the same compound?
A: 42%

Q: What about the EC50 (SK-MEL-2) of the same compound?
A: > 20 µg/mL

Q: What about the Inhibition (U-87 MG [4]) of the same compound?
A: 20%

Q: What about the EC50 (U-87 MG [3]) of the same compound?
A: > 20 µg/mL

Q: Which results are given for `Cc1ccccc1/C=C/C(=O)c1ccccc1N`?
A: EC50 (A549): 3.5 µg/mL (≈ 14.7 µM); EC50 (HCT-8): 9.8 µg/mL (≈ 41.3 µM); EC50 (HOS): 4 µg/mL (≈ 16.9 µM); EC50 (1A9): 1.2 µg/mL (≈ 5.06 µM); EC50 (KB [1]): 1.25 µg/mL (≈ 5.27 µM); EC50 (KB [2]): 1.35 µg/mL (≈ 5.69 µM); EC50 (MCF7): 6.1 µg/mL (≈ 25.7 µM); EC50 (SK-MEL-2): 5.1 µg/mL (≈ 21.5 µM); Inhibition (U-87 MG [4]): 34%; EC50 (U-87 MG [3]): > 10 µg/mL

Q: How did the EC50 (A549) turn out when `COc1cccc(/C=C/C(=O)c2cc3c(cc2N)OCO3)c1` was run?
A: 0.45 µg/mL (≈ 1.51 µM)

Q: What about the EC50 (HCT-8) of the same compound?
A: 1.5 µg/mL (≈ 5.05 µM)

Q: What about the EC50 (HOS) of the same compound?
A: 2.4 µg/mL (≈ 8.07 µM)

Q: And the EC50 (1A9)?
A: 0.35 µg/mL (≈ 1.18 µM)

Q: And the EC50 (KB [1])?
A: 0.3 µg/mL (≈ 1.01 µM)

Q: What about the EC50 (KB [2]) of the same compound?
A: 0.52 µg/mL (≈ 1.75 µM)

Q: And the EC50 (MCF7)?
A: 0.48 µg/mL (≈ 1.61 µM)

Q: And the EC50 (SK-MEL-2)?
A: 2.3 µg/mL (≈ 7.74 µM)

Q: What about the EC50 (U-87 MG [3]) of the same compound?
A: 8 µg/mL (≈ 26.9 µM)
